Results on three compounds are retold here after patent US8026218B2, “Bifunctional analgesic compounds for opioid receptor agonists and neurokinin-1 receptor antagonists” (The University of Arizona, priority 2006, dated 2011).

Structures are written as SMILES. Several values for one entry are separate records, joined by “and”; a condition that tells them apart may be missing. Equal values may be shown once. Entries after “also recorded” stand apart in the source; their conditions may differ. Read-outs that look alike come from different tables or passages of the source.

Series [1] concerns the target T1, human δ opioid receptors (hDOR) (Homo sapiens, UniProt P41143).
T1 construct: expressed in transfected cells; host or cells: HN9.10 neuroblastoma cell line, pCDNA3, neomycin-selected clones
Description: Radioligand competition binding, [3H]DPDPE, hDOR membranes. Particulars: membranes from transfected HN9.10 cells. (In general: Displacement assays read how much labelled ligand stays bound in the presence of the test substance.)

Series [2] deals with T2, rat NK1 (rNK1) receptor (Rattus norvegicus, UniProt P14600).
T2 construct: expressed in transfected cells; host or cells: CHO (rNK-1/CHO cell line from Dr. James Krause)
T2 sequence (P14600 whole entry): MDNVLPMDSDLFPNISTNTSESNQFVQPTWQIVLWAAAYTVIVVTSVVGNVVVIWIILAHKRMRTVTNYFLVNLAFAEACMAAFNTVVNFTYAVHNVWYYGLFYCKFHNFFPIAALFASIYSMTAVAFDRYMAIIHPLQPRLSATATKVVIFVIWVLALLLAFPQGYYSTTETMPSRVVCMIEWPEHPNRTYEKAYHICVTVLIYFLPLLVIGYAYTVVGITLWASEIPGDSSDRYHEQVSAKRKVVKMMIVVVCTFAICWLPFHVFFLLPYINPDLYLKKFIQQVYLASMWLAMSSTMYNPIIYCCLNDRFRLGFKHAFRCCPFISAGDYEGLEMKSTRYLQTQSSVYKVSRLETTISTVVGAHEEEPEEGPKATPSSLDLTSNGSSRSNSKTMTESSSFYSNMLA
In words: Radioligand competition binding, [3H]substance P, rNK1/CHO membranes. The following applies: for IC50: membranes from transfected CHO cells.

Series [3] addresses T3, human NK1 receptor (hNK1) (Homo sapiens, UniProt P25103).
T3 construct: expressed in transfected cells
Description: Radioligand competition binding, [3H]-Substance P, hNK1. Particulars: Ki rNK1 vs Ki hNK1.

Series [4] deals with T1, human δ opioid receptors (hDOR). Description: [35S]GTP-γ-S binding assay, hDOR. It is filed as biochemical. (Binding of GTPγS marks nucleotide exchange on a G protein.)
The target of series [5] is T4, rat μ opioid receptors (rMOR) (Rattus norvegicus, UniProt P33535).
T4 construct: expressed in transfected cells; host or cells: HN9.10 neuroblastoma cell line, pCDNA3, neomycin-selected clones
T4 sequence (P33535 whole entry): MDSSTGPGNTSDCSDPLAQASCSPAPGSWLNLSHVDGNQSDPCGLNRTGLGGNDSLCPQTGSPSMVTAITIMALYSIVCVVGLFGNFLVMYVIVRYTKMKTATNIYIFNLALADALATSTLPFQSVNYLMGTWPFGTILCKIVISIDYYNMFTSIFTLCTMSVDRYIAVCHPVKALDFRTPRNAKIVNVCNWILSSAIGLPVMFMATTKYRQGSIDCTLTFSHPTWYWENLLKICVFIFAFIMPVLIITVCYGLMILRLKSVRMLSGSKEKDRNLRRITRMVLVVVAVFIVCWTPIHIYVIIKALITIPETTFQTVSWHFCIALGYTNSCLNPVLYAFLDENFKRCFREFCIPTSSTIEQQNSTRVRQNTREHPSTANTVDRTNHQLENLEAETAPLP
Description: biochemical. It is filed as biochemical.

Series [6] addresses T5, δ opioid receptors (MVD) (Mus musculus, UniProt P32300).
T5 construct: from tissue; host or cells: mouse (ICR) isolated vas deferens
Description: Mouse isolated vas deferens (MVD) assay, opioid agonist.

Series [7] concerns μ opioid receptors (GPI). In words: Guinea pig isolated ileum (GPI) assay, opioid agonist.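 Also: inhibition of electrically evoked contractions (0.1 Hz, 0.4 msec, supramaximal voltage) in organ baths at 37 °C, contraction height 3 min after each cumulative dose versus the 1 min before dosing.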
Description: Guinea Pig Isolated Ileum Assay. […] These tissues were tied to gold chains with suture silk and mounted between platinum wire electrodes in 20 mL organ baths at a tension of 1 g and bathed in oxygenated (95:5 O2:CO2) Kreb's bicarbonate buffer at 37° C. and stimulated electrically (0.1 Hz, 0.4 msec duration) at supramaximal voltage. Following an equilibration period, compounds were added cumulatively to the bath in volumes of 14-60 μL until maximum inhibition was reached. A baseline PL-017 was constructed to determine tissue integrity and allow calculation of antagonist activity before opioid analog testing began.
For opioid data analysis, percentage inhibition was calculated using the average tissue contraction height for 1 min preceding the addition of the agonist divided by the contraction height 3 min after exposure to the dose of agonist. […] IC50 and Emax estimates were determined by computerized nonlinear least-squares analysis (the pharmacological statistics package FlashCalc: Dr. Michael Ossipov, University of Arizona, Tucson, Ariz.). […] A50 values represent the mean of not less than 4 tissues. A50 and Emax estimates were determined by computerized nonlinear least-squares analysis (FlashCalc).
Series [8] addresses T6, Substance P receptors (guinea pig NK1) (Cavia porcellus, UniProt P30547).
T6 construct: from tissue; host or cells: guinea pig (Hartley) ileum LMMP, 1 μM naloxone present
In words: Guinea pig isolated ileum (GPI) assay with substance P stimulation in presence of 1 μM naloxone.

A short description of series [9]: Octanol/saline distribution (logD7.4). It is filed as physicochemical. Particulars: 0.05 N HEPES buffer in 0.1 N NaCl. As to the method:
HEPES buffer (0.05 M HEPES buffer in 0.1 M NaCl, pH 7.4, 500 μL) was added to 2 mg of compound and mixed with 500 μL of 1-octanol. The sample was shaken at r.t. for 12 h to allow equilibrating. The sample was centrifuged at 6500 rpm in a VanGuard V6500 (GlaxoSmithKline, Research Triangle Park, N.C.) for 15 min. The layers were separated and each layer was centrifuged once again. The compound concentrations of obtained layers were analyzed by HPLC (30-70% of acetonitrile containing 0.1% TFA within 20 min and up to 95% within additional 5 min, 1 mL/min, 230 nm, Vydac 218TP104 C-18 column). The logarithm of 1-octanol/saline distribution (logD7.4) was calculated as the ratio of compound concentration in the 1-octanol and saline phases.
Octanol/saline distribution (logD7.4) (Yamamoto, 2007, J. Med. Chem., submitted). HEPES buffer (0.05 M HEPES buffer in 0.1 M NaCl, pH 7.4, 500 μL) was added to 2 mg of compound and mixed with 500 μL of 1-octanol. The sample was shaken at r.t. for 12 h to allow equilibrating. The sample was centrifuged at 6500 rpm in a VanGuard V6500 (GlaxoSmithKline, Research Triangle Park, N.C.) for 15 min. The layers were separated and each layer was centrifuged once again. The compound concentrations in the obtained layers were analyzed by HPLC (30-70% of acetonitrile containing 0.1% TFA within 20 min and up to 95% within additional 5 min, 1 mL/min, 230 nm, Vydac 218TP104 C-18 column). The logarithm of 1-octanol/saline distribution (logD7.4) was calculated as the ratio of compound concentration in the 1-octanol and saline phases.

Series [10] can be described thus: Solubility in HEPES buffer. Particulars: pH 7.4; 0.05 N HEPES buffer in 0.1 N NaCl solution. The class given is physicochemical. As to the method:
Solubility. HEPES buffer (0.05 M HEPES buffer in 0.1 M NaCl, pH 7.4, 500 μL) was added to 1 mg of compound. The sample was vortexed for 30 sec, sonicated for 5 min, shaken at r.t. for 2 h, and then allowed to be stayed overnight to equilibration. The sample was filtrated with an Acrodisc Syringe Filter (13 mm, 0.45 μm pore, PTFE membrane, Pall Life Sciences, East Hills, N.Y.).

Series [11] relates to male Sprague Dawley rats. Description: Anti-nociception, infrared radiant heat paw withdrawal latency. It is filed as in vivo, rat. The following applies: i.th. As to the method:
(§1) To estimate the analgesic potency of the chimeric compounds, anti-nociceptive, anti-hyperalgecia and anti-allodynic efficacies is tested via intrathecal (i.th.) or systemic (s.c.) administration of the compounds in L5/L6 spinal nerve ligated (SNL) male Sprague Dawley rats. Anti-nociception and anti-hyperalgecia were determined by using the infrared thermal testing, wherein paw withdrawal latencies were measured in response to a mobile radiant heat (FIG. 7-14). Anti-allodynic effect was measured in von Frey filamental testing (FIG. 7-14). Both chronic and acute animal models were tested ([…]).
(§2) In vivo Biological Activity. […] Food and water was available ad libitum. […] I.th. […] Each training session lasted three minutes. […] Discussion.

Series [12] has as its system L5/L6 spinal nerve ligated (SNL) male Sprague Dawley rats. Description: Anti-hyperalgesia, infrared radiant heat in L5/L6 SNL rats. The class given is in vivo, rat. As to the method: as §1, §2
For series [13] the test system is unchanged. Description: Anti-allodynia, von Frey filament testing in L5/L6 SNL rats. The class given is in vivo, rat. Particulars: for anti-allodynic effect against mechanical stimulation: SNL rats, words. As to the method: as §1, §2
Series [14] in a line: Brain distribution, in situ perfusion model. The class given is in vivo. Particulars: FIG. 20.
The subject of series [15] is male Sprague Dawley rats. In words: Observation of toxicity throughout the in vivo studies. On the set-up: species or system rat.
From the text: as §2
These assays gave the inventors very encouraging results.

Series [16] deals with normal, uninjured rats. In words: Rotarod motor skill test. Particulars: highest analgesic dose 30 μg. On the technique in general: The rotarod test checks motor coordination on a turning rod.
Series [17] deals with T3, human NK1 receptor (hNK1). Particulars: Cascieri 1994; cited from earlier work.
Series [18] deals with normal, uninjured rats. The following applies: reported; cited from earlier work.
Setting [19] is: chronic, i.th., SNL-operated animals.

T6 sequence (P30547 whole entry): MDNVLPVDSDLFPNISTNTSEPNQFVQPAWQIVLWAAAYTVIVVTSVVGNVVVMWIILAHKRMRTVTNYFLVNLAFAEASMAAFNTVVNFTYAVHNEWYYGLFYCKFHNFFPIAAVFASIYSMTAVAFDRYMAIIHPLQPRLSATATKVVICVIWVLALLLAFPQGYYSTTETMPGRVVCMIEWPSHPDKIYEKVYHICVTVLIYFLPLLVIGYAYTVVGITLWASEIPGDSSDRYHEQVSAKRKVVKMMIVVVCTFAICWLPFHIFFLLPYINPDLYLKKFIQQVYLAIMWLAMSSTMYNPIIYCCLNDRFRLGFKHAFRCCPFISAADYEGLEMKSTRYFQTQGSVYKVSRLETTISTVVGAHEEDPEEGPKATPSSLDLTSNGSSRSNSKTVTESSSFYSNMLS
T1 sequence (P41143 whole entry): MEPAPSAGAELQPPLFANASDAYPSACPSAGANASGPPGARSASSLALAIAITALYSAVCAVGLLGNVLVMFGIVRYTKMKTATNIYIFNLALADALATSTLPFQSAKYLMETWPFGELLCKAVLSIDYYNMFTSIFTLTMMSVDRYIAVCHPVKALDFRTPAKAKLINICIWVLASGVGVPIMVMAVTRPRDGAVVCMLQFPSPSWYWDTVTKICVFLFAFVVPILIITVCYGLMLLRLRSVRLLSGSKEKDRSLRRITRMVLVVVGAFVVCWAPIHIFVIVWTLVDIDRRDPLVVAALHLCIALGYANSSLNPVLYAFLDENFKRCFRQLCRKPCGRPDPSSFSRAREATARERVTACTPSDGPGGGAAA
T3 sequence (P25103 whole entry): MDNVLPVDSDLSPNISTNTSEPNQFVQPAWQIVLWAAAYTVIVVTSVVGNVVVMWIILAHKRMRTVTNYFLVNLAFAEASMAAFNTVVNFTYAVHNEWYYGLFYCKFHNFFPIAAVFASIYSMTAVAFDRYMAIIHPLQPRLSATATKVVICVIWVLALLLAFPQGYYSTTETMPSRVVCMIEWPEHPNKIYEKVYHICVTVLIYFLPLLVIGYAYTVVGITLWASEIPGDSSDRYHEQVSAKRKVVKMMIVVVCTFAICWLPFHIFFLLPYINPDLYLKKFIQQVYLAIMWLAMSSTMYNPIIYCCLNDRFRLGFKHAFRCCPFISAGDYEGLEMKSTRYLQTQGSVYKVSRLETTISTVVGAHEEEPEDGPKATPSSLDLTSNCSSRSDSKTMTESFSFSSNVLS
T5 sequence (P32300 whole entry): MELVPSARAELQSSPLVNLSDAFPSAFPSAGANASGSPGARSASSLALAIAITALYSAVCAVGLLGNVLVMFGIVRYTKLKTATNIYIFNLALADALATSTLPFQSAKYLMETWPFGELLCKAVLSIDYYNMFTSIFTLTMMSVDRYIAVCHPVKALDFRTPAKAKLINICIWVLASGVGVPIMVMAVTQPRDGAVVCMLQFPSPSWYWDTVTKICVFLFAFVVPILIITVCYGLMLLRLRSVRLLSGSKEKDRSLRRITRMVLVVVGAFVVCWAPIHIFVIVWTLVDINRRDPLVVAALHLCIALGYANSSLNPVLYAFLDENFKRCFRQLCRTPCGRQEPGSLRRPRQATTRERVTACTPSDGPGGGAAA

For `CSCC[C@H](NC(=O)[C@H](Cc1ccccc1)NC(=O)CNC(=O)[C@@H](C)NC(=O)[C@@H](N)Cc1ccc(O)cc1)C(=O)N1CCC[C@H]1C(=O)N[C@@H](CC(C)C)C(=O)N[C@@H](Cc1c[nH]c2ccccc12)C(=O)OCc1cc(C(F)(F)F)cc(C(F)(F)F)c1` [TY005, H-Tyr-D-Ala-Gly-Phe-Met-Pro-Leu-Trp-O-3,5-Bzl(CF3)2], the “LogIC50, hDOR, [3H]DPDPE” value in series [1] is given as −8.22 ± 0.06. Further, the inhibition constant Ki in [2] (Affinity rNK1 (Ki; nM), Table 29) is 0.2 nM. In addition, the IC50 in series [2] (IC50, rNK1, Substance P radioligand) is 6.4 nM; in [2] (LogIC50, rNK1, Substance P radioligand) it was 6.03 nM; in series [6] it was 22.3 nM; in series [7] (Table 16, electrically stimulated isolated tissue, read-out: Opioid agonist GPI (μ), IC50), 360 ± 130 nM; in series [7] (Table 28, read-out: GPI/LMMP Opioid(m) Agonist (IC50; nM)), 359 nM; in [7] (Table 30, read-out: GPI/LMMP Opioid(m) Agonist (IC50; nM)), 359 nM. Also, the IC50 in series [7] (Table 39, read-out: GPI/LMMP opioid(mu) agonist (IC50; nM)) was 359 nM; in series [7] (electrically stimulated isolated tissue, read-out: GPI (μ), IC50) it was 359 ± 127 nM. Also, in [3], the “species difference between affinities at rNK1 and hNK1” value came out at 3.4 fold. Moreover, the Emax in series [4] (read-out: Emax, hDOR, [35S]GTP-γ-S binding) came out at 51%; in series [4] (read-out: GTP binding hDOR Emax), 47.6%; in series [4] (read-out: GTP binding hDOR Emax (%)), 47.6%; in series [5] (read-out: Emax, rMOR, [35S]GTP-γ-S binding), 45%; in series [5] (read-out: GTP binding rMOR Emax) it was 45.6%; in series [5] (read-out: GTP binding rMOR Emax (%)), 45.6%. In addition, the Kb in series [8] (Substance P antagonist, GPI, Ke, in the presence of 1 μM naloxone) came out at 24.7 ± 8.8 nM. Moreover, the activation at 1 µM in [8] (read-out: Substance P GPI agonist (A50), at 1 μM, contraction relative to initial muscle contraction with KCl) worked out at 0%. Moreover, the logD7.4 in [9] is listed as >4.0. Moreover, the solubility in series [10] is < 0.2 µg/mL. Also, in series [11], the “time after administration at which efficacy disappeared” value was 45 min. Moreover, the anti-nociceptive effect result in series [11] (infrared radiant heat, words) is “very potent; also recorded: distinct anti-nociceptive effect”. In addition, in series [12] (30 μg i.th., SNL rats), the anti-hyperalgesic recovery is given as ~100%. The “thermal hyperalgesia after chronic administration” value in [12] (setting [19]) is reported as “attenuates thermal hyperalgesia”. In series [12] (i.th., SNL rats, words), the anti-hyperalgesic efficacy entry is listed as “very potent; also recorded: Dose dependent anti-hyperalgesic efficacy”. For the same compound, the “anti-allodynic effect against mechanical stimulation” value in [13] is “very potent anti-allodynic effect”. Moreover, the “mechanical allodynia after chronic administration” value in series [13] (setting [19]) is recorded as “reverses mechanical allodynia”. Moreover, the “blood brain barrier penetration” value in [14] is reported as “penetrate blood brain barrier”. Besides, the sign of toxicity result in series [15] is “without any sign of toxicity; also recorded: no sign of toxicity”. For the same compound, the “sensorimotor impairment in rotarod test” value in series [16] is given as “no sensorimotor impairment”.

With `CC(=O)N[C@@H](Cc1c[nH]c2ccccc12)C(=O)OCc1cc(C(F)(F)F)cc(C(F)(F)F)c1` [L-732,138, Ac-Trp-3,5-O-Bzl(CF3)2, reference compound], the “Substance P antagonist, GPI, Ke” value in series [8] (Table 16, in the presence of 1 μM naloxone) was 250 ± 87 nM; in [8] (Table 22, in the presence of 1 μM naloxone), 250 ± 87 nM; in [8] (in the presence of 1 μM naloxone) it was 247 nM; in series [8] (in the presence of 1 μM naloxone, 138) it was 247 ± 87 nM and 250 ± 87 nM. Besides, the “less affinity for rNK1 than hNK1 receptor” value in series [17] is reported as 200 fold.

In the case of `CN1CC[C@]23c4c5ccc(O)c4O[C@H]2[C@@H](O)C=C[C@H]3[C@H]1C5` [morphine, reference compound], the “anti-allodynic effect against mechanical stimulation” value in series [13] was “negligible anti-allodynic efficacy”. Moreover, in [18], the rotarod performance entry was “impaired performance”.

Broadly, the Ki is a measure of affinity in units of concentration, obtained from inhibition or displacement. For orientation: Emax means the greatest response seen or fitted, relative to the assay's reference. The term Kb denotes the affinity of an antagonist, worked out from how it opposes an agonist. What is called solubility is how much of the substance goes into solution per volume.
